# Measured values reported in article PMC9501899 (Journal of the American Chemical Society, 2022).
# pIC50: −log10 of the molar value. Read-outs that look alike come from different tables or passages of the source.
# How the values were obtained:
# [1] = molecular target: T1, G2019S LRRK2 (Mus musculus, UniProt Q5S006, G2019S); assay: LRRK2 degradation in G2019S LRRK2 MEFs by Western blotting; assay type: cell-based; details: for Dmax: dose-dependent degradation
# T1 construct: endogenous in cells; host or cells: G2019S LRRK2 MEFs
# Procedure: These PROTACs were then biologically evaluated in mouse embryonic fibroblasts (MEFs) by Western blotting. Briefly, MEFs were treated with compounds at 33 nM and 1 μM for 4 h (Figure 2) and 24 h (Figure S2) separately, and the intracellular level of LRRK2, phosphorylated LRRK2 at Ser935, and phosphorylated Rab10 (pRab10) at Thr73 was determined. Rab10[5],[49] is one of the bona fide substrates of LRRK2, whose phosphorylation status is directly affected by the LRRK2 kinase activity and protein level. Phosphorylation of LRRK2 at Ser935 is a well-studied biomarker site used to assess the efficacy of type 1 LRRK2 inhibitors.[30]
# Primary MEFs were generated as described in a previous study.[80] Briefly, the uterine horn was collected from adult female mice at day E12.5 and transferred to a 10 cm tissue culture dish containing cold PBS. Two forceps were used to tear the yolk sacs to isolate each embryo. Forceps were cleaned thoroughly with 70% ethanol between each embryo isolation. The embryos were culled, and a tissue piece was collected in a polymerase chain reaction (PCR) tube for genotyping. The red tissue of the embryo was removed, and the remainder was minced with a scalpel blade and incubated with a 7.5 mL trypsin–ethylenediaminetetraacetic acid (EDTA) solution for 10 min in a 37 °C, 5% CO2 tissue culture incubator. The dish was removed from the incubator and checked under a light microscope for single cells. Complete media (7.5 mL) was added to the trypsinized cells, and the cell suspension was transferred to a 15 mL Falcon tube and centrifuged at 1200 rpm for 5 min at room temperature. The trypsin was aspirated, the cell pellet was resuspended in a 5 mL fresh complete media, and the cell suspension was plated in a 60 mm tissue culture dish and incubated in a 37 °C, 5% CO2 tissue culture incubator. The MEFs at this stage were considered as passage 0 and were passaged and expanded for experimental use once the genotype was confirmed by allelic sequencing and immunoblotting. MEFs were cultured in Dulbecco’s modified Eagle’s medium (DMEM) containing 10% (v/v) fetal bovine serum (FBS), 2 mM L-glutamine, 100 U/mL penicillin, and 100 μg/mL streptomycin supplemented with 1× nonessential amino acids and 1 mM sodium pyruvate.
# Culturing and passaging of adherent cell lines were carried out using an aseptic technique in CL1 or CL2 (for PBMC isolation) biological safety cabinets. All cells were incubated in a 37 °C incubator with 5% CO2. Cell lines were regularly tested for mycoplasma contamination. For Western blot assay, the cells were seeded in six-well plates. For immunoprecipitation of LRRK2, SH-SY5Y cells (cultured in DMEM-F12, supplemented with 15% (v/v) FBS, 100 U/mL penicillin and 100 μg/mL streptomycin, 1× nonessential amino acids, and 1 mM sodium pyruvate) were seeded in a 10 cm dish. All cells were treated with the indicated compounds such that the final concentration of DMSO was 0.1%. Following the treatment of cells with compounds at indicated concentrations and time periods, the media was removed and the cells were washed with PBS and lysed in a 100 μL ice-cold complete lysis buffer containing 50 mM tris–HCl pH 7.4, 1 mM EGTA, 10 mM 2-glycerophosphate, 50 mM sodium fluoride, 5 mM sodium pyrophosphate, 270 mM sucrose, supplemented with 1 μg/mL microcystin-LR, 1 mM sodium orthovanadate, complete EDTA-free protease inhibitor cocktail (Roche), and 1% (v/v) Triton X-100. The cells were immediately placed on ice and were scraped and collected into 1.5 mL Eppendorf tubes. Cell lysates were incubated on ice for 10 min prior to centrifugation at 15 000g at 4 °C for 15 min.
# [2] = molecular target: T2, LRRK2-NanoLuc (Homo sapiens, UniProt Q5S007); assay: NanoBRET LRRK2 target engagement assay in HEK293 cells; assay type: binding; details: for pIC50: permeabilized HEK293 cells
# T2 construct: host or cells: HEK293
# Procedure: Figure 9 Binding affinities to VHL and LRRK2. (A) Binding affinity of the tested compounds to VHL using the FP assay. […] NanoBRET target engagement assays of tested compounds to VHL (B) and LRRK2 (C) in permeabilized and live-cell modes. The indicated compounds were titrated into HEK293 cells transfected with VHL-NanoLuc (B) or LRRK2-NanoLuc fusion (C) in the presence of VHL tracer (B) or LRRK2 tracer (C). 0.25 and 0.5 μM VHL tracers were used for the permeabilized and live mode VHL engagement assays separately. 0.125 and 0.5 μM of LRRK2 tracer were used for the permeabilized and live mode LRRK2 engagement assays separately. The fractional occupancy of the tracers is plotted against the tested compounds’ concentrations and fitted into “nonlinear regression, one site-log IC50” to obtain the IC50 values of each compound against both permeabilized and live cells, separately. Data points are presented as mean ± SEM from three independent experiments. (D) The IC50 ratios between permeabilized and live mode target engagements of each compound were used to compare their permeabilities.
# For VHL and LRRK2 target engagement experiments in live and permeabilized cells, the HEK293 cells were transfected with the VHL-NanoLuc fusion vector (Promega, N275A) or LRRK2-NanoLuc fusion vector (Promega, NV3401) following Promega’s protocol and seeded into a white 384-well plate (Corning3570) at a density of 6000 cells/well. […] The filtered luminescence was measured within 10 min following the addition of the substrate on a GloMax Discover microplate reader (Promega) or a PHERAstar (BMG LABTECH) plate reader equipped with a 450 nm bandpass filter (donor) and a 600 nm long-pass filter (acceptor). […] The plates were then cooled down, and a NanoBRET NanoGlo Substrate and an Extracellular NanoLuc Inhibitor (Promega, N2160) were added before performing the same NanoBRET reading as the permeabilized mode on plate readers. […]
# [3] = system: Rab10-pThr73; assay: Rab10 dephosphorylation in G2019S LRRK2 MEFs by Western blotting; assay type: cell-based, mouse; details: 0.3 µM
# [4] = molecular target: T3, VHL-NanoLuc (Homo sapiens, UniProt P40337); assay: NanoBRET VHL target engagement assay in HEK293 cells; assay type: binding
# T3 construct: host or cells: HEK293
# Procedure: Figure 9 Binding affinities to VHL and LRRK2. (A) Binding affinity of the tested compounds to VHL using the FP assay. […] NanoBRET target engagement assays of tested compounds to VHL (B) and LRRK2 (C) in permeabilized and live-cell modes. The indicated compounds were titrated into HEK293 cells transfected with VHL-NanoLuc (B) or LRRK2-NanoLuc fusion (C) in the presence of VHL tracer (B) or LRRK2 tracer (C). 0.25 and 0.5 μM VHL tracers were used for the permeabilized and live mode VHL engagement assays separately. 0.125 and 0.5 μM of LRRK2 tracer were used for the permeabilized and live mode LRRK2 engagement assays separately. […]
# For VHL and LRRK2 target engagement experiments in live and permeabilized cells, the HEK293 cells were transfected with the VHL-NanoLuc fusion vector (Promega, N275A) or LRRK2-NanoLuc fusion vector (Promega, NV3401) following Promega’s protocol and seeded into a white 384-well plate (Corning3570) at a density of 6000 cells/well. […] The filtered luminescence was measured within 10 min following the addition of the substrate on a GloMax Discover microplate reader (Promega) or a PHERAstar (BMG LABTECH) plate reader equipped with a 450 nm bandpass filter (donor) and a 600 nm long-pass filter (acceptor). […]
# [5] = ratio used to compare permeabilities
# T1 sequence (Q5S006 whole entry G2019S): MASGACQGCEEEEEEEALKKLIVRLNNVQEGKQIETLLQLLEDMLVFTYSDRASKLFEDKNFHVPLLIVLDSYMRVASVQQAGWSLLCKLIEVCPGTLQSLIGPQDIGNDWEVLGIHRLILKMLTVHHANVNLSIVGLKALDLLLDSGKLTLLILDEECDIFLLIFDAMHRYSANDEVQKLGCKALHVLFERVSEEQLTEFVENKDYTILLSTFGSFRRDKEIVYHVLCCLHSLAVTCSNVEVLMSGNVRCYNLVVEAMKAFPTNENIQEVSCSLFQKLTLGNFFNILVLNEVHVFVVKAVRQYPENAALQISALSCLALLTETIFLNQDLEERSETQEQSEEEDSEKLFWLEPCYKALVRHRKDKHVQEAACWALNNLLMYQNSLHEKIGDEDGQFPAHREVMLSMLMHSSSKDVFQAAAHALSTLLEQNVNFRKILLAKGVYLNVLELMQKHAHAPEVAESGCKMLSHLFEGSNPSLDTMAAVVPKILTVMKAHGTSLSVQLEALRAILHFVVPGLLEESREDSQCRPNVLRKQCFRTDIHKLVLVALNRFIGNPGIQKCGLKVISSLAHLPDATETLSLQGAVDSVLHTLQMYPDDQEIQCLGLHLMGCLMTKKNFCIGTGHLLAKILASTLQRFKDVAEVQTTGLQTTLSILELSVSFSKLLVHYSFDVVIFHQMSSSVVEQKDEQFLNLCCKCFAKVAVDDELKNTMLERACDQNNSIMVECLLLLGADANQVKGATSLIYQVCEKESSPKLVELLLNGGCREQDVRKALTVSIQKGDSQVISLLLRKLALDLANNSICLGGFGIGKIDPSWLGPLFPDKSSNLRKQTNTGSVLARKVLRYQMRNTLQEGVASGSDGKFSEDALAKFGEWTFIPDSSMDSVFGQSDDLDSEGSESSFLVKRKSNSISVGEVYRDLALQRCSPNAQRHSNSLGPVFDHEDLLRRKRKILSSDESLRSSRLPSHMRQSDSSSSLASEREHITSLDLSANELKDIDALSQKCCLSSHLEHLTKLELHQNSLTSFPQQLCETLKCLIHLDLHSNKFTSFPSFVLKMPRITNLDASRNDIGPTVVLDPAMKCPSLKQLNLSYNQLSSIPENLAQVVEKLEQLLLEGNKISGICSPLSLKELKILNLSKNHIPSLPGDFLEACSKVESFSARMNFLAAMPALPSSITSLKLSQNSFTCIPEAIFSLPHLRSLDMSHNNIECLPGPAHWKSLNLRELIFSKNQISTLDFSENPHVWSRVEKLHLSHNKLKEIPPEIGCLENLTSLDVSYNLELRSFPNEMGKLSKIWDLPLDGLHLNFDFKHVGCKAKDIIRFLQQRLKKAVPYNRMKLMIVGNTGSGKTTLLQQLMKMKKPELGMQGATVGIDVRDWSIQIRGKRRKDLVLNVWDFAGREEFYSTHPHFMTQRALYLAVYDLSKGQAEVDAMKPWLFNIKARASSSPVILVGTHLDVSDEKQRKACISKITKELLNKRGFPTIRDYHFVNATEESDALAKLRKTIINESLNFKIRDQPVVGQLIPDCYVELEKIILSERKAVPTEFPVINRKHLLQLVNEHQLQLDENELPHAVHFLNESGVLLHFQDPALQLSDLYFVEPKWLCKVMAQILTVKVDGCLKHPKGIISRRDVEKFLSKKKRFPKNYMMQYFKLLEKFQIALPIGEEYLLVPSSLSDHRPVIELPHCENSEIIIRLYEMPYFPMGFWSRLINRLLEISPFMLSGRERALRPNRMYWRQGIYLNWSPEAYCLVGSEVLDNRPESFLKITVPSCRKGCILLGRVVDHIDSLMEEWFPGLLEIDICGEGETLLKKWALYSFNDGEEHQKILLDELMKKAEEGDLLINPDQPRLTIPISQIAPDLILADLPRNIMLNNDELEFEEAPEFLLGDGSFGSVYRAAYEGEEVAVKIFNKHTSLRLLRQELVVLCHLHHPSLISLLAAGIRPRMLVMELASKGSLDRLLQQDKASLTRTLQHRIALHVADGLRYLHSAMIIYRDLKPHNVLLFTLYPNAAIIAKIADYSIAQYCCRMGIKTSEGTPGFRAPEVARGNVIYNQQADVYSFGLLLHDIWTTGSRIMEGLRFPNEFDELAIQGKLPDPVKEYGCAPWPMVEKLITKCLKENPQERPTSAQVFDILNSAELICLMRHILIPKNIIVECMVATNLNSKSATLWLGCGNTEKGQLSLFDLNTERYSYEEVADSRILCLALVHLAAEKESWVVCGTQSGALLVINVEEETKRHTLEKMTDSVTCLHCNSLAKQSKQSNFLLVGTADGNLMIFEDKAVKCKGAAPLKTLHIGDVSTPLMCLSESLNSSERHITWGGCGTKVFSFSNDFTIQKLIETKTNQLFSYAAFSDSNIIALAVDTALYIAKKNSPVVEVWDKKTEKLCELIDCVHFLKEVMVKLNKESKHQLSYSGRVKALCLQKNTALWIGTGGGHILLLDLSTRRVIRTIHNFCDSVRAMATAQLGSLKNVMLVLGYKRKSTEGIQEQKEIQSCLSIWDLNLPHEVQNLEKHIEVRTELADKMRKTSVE
# T2 sequence (Q5S007 whole entry): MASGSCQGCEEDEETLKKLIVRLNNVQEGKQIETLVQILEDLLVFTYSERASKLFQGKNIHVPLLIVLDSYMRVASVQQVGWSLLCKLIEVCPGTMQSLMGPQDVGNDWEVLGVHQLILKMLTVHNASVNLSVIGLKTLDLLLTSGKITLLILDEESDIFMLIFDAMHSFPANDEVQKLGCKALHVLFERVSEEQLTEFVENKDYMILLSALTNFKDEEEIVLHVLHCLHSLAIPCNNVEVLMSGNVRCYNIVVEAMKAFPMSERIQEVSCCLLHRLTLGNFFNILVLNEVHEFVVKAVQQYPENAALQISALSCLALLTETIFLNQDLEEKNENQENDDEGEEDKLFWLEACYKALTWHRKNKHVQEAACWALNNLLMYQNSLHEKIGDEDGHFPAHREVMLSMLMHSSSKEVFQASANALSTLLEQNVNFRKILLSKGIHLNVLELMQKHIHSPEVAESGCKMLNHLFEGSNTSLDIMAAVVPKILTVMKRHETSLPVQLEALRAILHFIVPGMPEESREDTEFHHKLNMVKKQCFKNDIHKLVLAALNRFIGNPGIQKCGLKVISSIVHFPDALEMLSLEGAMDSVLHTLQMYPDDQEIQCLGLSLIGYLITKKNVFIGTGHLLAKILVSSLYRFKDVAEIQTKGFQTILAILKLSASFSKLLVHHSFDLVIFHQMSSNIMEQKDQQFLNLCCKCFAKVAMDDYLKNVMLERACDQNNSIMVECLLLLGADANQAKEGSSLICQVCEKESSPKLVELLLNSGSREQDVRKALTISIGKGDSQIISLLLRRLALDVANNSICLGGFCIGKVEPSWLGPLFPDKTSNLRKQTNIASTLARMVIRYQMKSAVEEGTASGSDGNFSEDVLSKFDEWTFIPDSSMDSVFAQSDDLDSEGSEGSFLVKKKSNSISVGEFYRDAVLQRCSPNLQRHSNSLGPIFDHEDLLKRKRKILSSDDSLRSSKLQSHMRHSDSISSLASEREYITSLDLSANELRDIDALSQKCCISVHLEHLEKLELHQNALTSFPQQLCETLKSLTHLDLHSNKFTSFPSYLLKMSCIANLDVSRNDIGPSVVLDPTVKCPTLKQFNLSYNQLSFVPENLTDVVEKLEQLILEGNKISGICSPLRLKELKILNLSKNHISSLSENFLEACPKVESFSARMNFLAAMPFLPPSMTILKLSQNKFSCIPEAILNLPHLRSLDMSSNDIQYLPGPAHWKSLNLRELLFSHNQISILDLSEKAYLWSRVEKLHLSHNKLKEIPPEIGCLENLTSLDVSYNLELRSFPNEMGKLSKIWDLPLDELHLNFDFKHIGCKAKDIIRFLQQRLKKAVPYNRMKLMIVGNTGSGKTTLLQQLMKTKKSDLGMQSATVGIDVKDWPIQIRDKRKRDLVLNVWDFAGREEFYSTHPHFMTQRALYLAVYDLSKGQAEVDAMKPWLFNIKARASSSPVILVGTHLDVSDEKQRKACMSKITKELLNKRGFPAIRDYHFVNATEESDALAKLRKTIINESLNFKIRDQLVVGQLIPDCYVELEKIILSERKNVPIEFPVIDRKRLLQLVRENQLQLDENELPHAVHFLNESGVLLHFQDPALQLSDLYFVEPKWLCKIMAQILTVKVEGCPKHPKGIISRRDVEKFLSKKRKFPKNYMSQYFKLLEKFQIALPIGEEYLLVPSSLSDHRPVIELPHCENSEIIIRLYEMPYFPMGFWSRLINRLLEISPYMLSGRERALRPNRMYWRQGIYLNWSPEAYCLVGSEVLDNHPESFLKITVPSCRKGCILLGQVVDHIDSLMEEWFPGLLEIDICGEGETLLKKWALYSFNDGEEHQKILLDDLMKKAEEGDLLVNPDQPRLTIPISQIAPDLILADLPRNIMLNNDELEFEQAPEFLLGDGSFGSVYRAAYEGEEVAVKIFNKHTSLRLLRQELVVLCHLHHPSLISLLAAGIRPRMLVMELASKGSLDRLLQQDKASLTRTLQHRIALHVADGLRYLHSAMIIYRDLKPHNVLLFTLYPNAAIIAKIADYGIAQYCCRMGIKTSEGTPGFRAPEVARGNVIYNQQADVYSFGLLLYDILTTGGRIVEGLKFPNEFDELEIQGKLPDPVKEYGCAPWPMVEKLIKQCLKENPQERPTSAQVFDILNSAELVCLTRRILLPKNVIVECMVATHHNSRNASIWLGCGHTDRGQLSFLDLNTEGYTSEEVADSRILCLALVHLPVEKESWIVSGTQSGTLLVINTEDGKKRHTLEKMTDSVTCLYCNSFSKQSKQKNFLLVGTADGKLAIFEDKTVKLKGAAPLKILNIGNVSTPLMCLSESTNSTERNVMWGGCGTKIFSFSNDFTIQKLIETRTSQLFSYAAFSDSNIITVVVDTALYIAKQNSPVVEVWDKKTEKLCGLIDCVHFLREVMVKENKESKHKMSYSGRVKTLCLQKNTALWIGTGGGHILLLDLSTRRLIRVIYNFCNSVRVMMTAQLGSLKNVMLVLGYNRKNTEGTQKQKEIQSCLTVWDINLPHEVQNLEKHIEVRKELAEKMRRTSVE
smiles,measurement,setting,value
CNc1nc(Nc2ccc(C(=O)N3CCN(C[C@H]4CC[C@@H](CSC(C)(C)[C@H](NC(=O)C5(F)CC5)C(=O)N5C[C@H](O)CC5C(=O)NCc5ccc(-c6scnc6C)cc5)CC4)CC3)cc2OC)ncc1Cl (stereo partly shown) [XL01134],DC50,[1]; 4 h,0.007 µM
same,Dmax,"[1]; 4 h, read-out: Dmax,4h (G2019S LRRK2)",81%
same,pIC50,[2],5.70
same,GS-pRab10 percent label at the end of the time curve,[3],87%
CNc1nc(Nc2ccc(C(=O)N3CCN(CCOCCOCCSC(C)(C)[C@H](NC(=O)C4(F)CC4)C(=O)N4C[C@H](O)C[C@H]4C(=O)NCc4ccc(-c5scnc5C)cc4)CC3)cc2OC)ncc1Cl [SD75],Dmax at 1 µM,"[1]; 1 μM (1000 nM), read-out: Dmax (G2019S LRRK2), time-dependent degradation",81%
same,Dmax,"[1]; 24 h, read-out: Dmax,24h (G2019S LRRK2)",58%
same,VHL IC50 Permeabilized/IC50 Live,[4]; [5],0.76
same,LRRK2 IC50 Permeabilized/IC50 Live,[2]; [5],0.43
"CNc1nc(Nc2ccc(C(=O)N3CCN(C[C@H]4CC[C@H](CSC(C)(C)[C@H](NC(=O)C5(F)CC5)C(=O)N5C[C@H](O)CC5C(=O)NCc5ccc(-c6scnc6C)cc5)CC4)CC3)cc2OC)ncc1Cl (stereo partly drawn) [XL01126, (2S,4R)-1-((R)-3-((((1R,4R)-4-((4-(4-((5-Chloro-4-(methylamino)pyrimidin-2-yl)amino)-3-methoxybenzoyl)piperazin-1-yl)methyl)cyclohexyl)methyl)thio)-2-(1-fluorocyclopropane-1-carboxamido)-3-methylbutanoyl)-4-hydroxy-N-(4-(4-methylthiazol-5-yl)benzyl)pyrrolidine-2-carboxamide]",DC50,[1]; 4 h,0.014 µM
same,pIC50,[4]; permeabilized HEK293 cells,< 5.00
same,pIC50,[2],5.59
same,GS-pRab10 percent label at the end of the time curve,[3],92%
"CNc1nc(Nc2ccc(C(=O)N3CCN(C[C@H]4CC[C@H](CSC(C)(C)[C@H](NC(=O)C5(F)CC5)C(=O)N5C[C@@H](O)C[C@H]5C(=O)NCc5ccc(-c6scnc6C)cc5)CC4)CC3)cc2OC)ncc1Cl [cis-XL01126, (2S,4S)-1-((R)-3-((((1R,4R)-4-((4-(4-((5-Chloro-4-(methylamino)pyrimidin-2-yl)amino)-3-methoxybenzoyl)piperazin-1-yl)methyl)cyclohexyl)methyl)thio)-2-(1-fluorocyclopropane-1-carboxamido)-3-methylbutanoyl)-4-hydroxy-N-(4-(4-methylthiazol-5-yl)benzyl)pyrrolidine-2-carboxamide]",degradation of G2019S LRRK2 (in words),[1]; 4 h,no degradation
